Results on twelve compounds are retold here after patent publication US20100009970A1, “COMPOSITIONS AND METHODS FOR TREATMENT OF VIRAL DISEASES” (Combinatorx (Singapore) Pte. Ltd., priority 2008, published 2010).

The IC50 is the point on the concentration scale where inhibition reaches its midpoint. For orientation: IC90 means the concentration at which the effect reaches the 90% level. A low value points to an effect from little substance.

Structures are written as SMILES. Like-named read-outs stand apart in the source and are kept apart here.

The nature of one data set: in vitro. As to conditions: human.
Data set [1] has as its system Huh7 cells expressing a subgenomic RNA replicon of Con1 (genotype 1b) sequence origin. The data set is described as follows: microbe, parasite or virus in culture. Conditions: Hepatitis C virus; for IC90: Huh-7.
The mark [2] stands for this setting: Huh-7, read-out: IC50 (uM) [SG].
The mark [3] stands for this setting: Huh-7, read-out: Max Effect@CC30 (inhibition).

Regarding `CNCc1cc(S(N)(=O)=O)ccc1Oc1ccc([N+](=O)[O-])c(C)c1` [Compound 76, 4-(3-methyl-4-nitrophenoxy)-3-((methylamino)methyl)benzenesulfonamide], the CC50 in “in vitro” (CC50 (uM) [SG]) is above 50 µM. Moreover, the IC50 in data set [1] (setting [2]) came out at 31 µM.
With `CSc1ccc(Oc2ccc(S(N)(=O)=O)cc2CN(C)CCN(C)C)cc1C` [Compound 97, 3-(((2-(dimethylamino)ethyl)(methyl)amino)methyl)-4-(3-methyl-4-(methylthio)phenoxy)benzenesulfonamide], the CC50 in the data set “in vitro” (CC50 (uM) [SG]) worked out at 43.3 µM. The compound also showed an IC90 in data set [1] of 14 µM. Further, the IC50 in data set [1] (setting [2]) came out at 12.4 µM.
`CSc1ccc(Oc2ccc(S(N)(=O)=O)cc2CN2CC[C@H](F)C2)cc1C` [Compound 85, (S)-3-((3-fluoropyrrolidin-1-yl)methyl)-4-(3-methyl-4-(methylthio)phenoxy)benzenesulfonamide] yielded a CC50 in “in vitro” (CC50 (uM) [SG]) above 50 µM. In addition, the IC50 in data set [1] (setting [2]) turned out to be 7.22 µM.
In the same order, the values of `CSc1ccc(Oc2ccc(N(C)C)cc2CN(C)C)cc1C` [Compound 15, 3-((dimethylamino)methyl)-N,N-dimethyl-4-(3-methyl-4-(methylthio)phenoxy)aniline] are 38.7 µM and 23 µM.
As for `CSc1ccc(Oc2ccc(S(N)(=O)=O)cc2CN2CC[C@@H](O)C2)cc1C` [Compound 67, (R)-3-((3-hydroxypyrrolidin-1-yl)methyl)-4-(3-methyl-4-(methylthio)phenoxy)benzenesulfonamide], the CC50 in “in vitro” (CC50 (uM) [SG]) is above 50 µM. In data set [1], this compound displayed an IC90 of 7.4 µM. The IC50 in data set [1] (setting [2]) worked out at 2.26 µM.
Consider `N[C@H]1CC[C@@H](c2ccc(Cl)c(Cl)c2)c2ccccc21` [(1S,4S)-Desmethyl Sertraline, (1S,4S)-4-(3,4-dichlorophenyl)-1,2,3,4-tetrahydronaphthalen-1-amine], for which the CC50 in the data set “in vitro” (CC50 (uM)) and in “in vitro” (CC50 (uM) [SG]) was 8.98 ± 0.1 µM in each case. In addition, the Emax is 0% in data set [1] (GETYPE1B, Huh-7, 72 h, read-out: Max Effect @CC30 (inhibition)) and 0% in data set [1] (setting [3]). Moreover, the IC50 in data set [1] (Huh-7, 72 h) came to 7.5 ± 0.4 µM; in data set [1] (setting [2]), 7.5 µM.
In the case of `CSc1ccc(Oc2ccc(S(N)(=O)=O)cc2CN(C)C[C@H](C)O)cc1C` [Compound 71, (S)-3-(((2-hydroxypropyl)(methyl)amino)methyl)-4-(3-methyl-4-(methylthio)phenoxy)benzenesulfonamide], the CC50 in “in vitro” (CC50 (uM) [SG]) is above 50 µM. In data set [1], this compound showed an IC90 of 13.4 µM. Moreover, in data set [1] (setting [2]), the IC50 amounted to 4.96 µM.
In “in vitro” (CC50 (uM) [SG]), `CC(=O)Nc1ccc2c(c1)[C@@H](N(C)CCO)CC[C@H]2c1ccc(Cl)c(Cl)c1` [N-((5S,8S)-5-(3,4-dichlorophenyl)-8-((2-hydroxyethyl)(methyl)amino)-5,6,7,8-tetrahydronaphthalen-2-yl)acetamide] registered a CC50 of 44.9 µM. Moreover, in data set [1] (setting [2]), the IC50 was 13.2 µM.
`CSc1ccc(Oc2ccc(S(N)(=O)=O)cc2CN(C)C[C@@H](C)O)cc1C` [Compound 70, (R)-3-(((2-hydroxypropyl)(methyl)amino)methyl)-4-(3-methyl-4-(methylthio)phenoxy)benzenesulfonamide]: the CC50 in “in vitro” (CC50 (uM) [SG]) is above 50 µM. In data set [1], this compound showed an IC90 of 23.9 µM. In addition, the IC50 in data set [1] (setting [2]) was determined as 7.01 µM.
In the case of `CSc1ccc(Oc2ccc(S(N)(=O)=O)cc2CN2CCC[C@H]2CN2CCCC2)cc1C` [Compound 105, (S)-4-(3-methyl-4-(methylthio)phenoxy)-3-(((2-pyrrolidin-1-ylmethyl)pyrrolidin-1-yl)methyl)benzensulfonamide], the CC50 in the data set “in vitro” (CC50 (uM) [SG]) was 22.2 µM. Further, the IC90 in data set [1] was determined as 6.86 µM. The IC50 in data set [1] (setting [2]) was 6.38 µM.
For `CSc1ccc(Oc2ccc(S(N)(=O)=O)cc2CNCCO)cc1C` [Compound 1, 3-((2-hydroxyethylamino)methyl)-4-(3-methyl-4-(methylthio)phenoxy)benzenesulfonamide] the same measures were above 50 µM, 15 µM and 4.31 µM.
Regarding `CC(=O)N(C)c1ccc2c(c1)[C@@H](N(C)C)CC[C@H]2c1ccc(Cl)c(Cl)c1`, in the data set “in vitro” (CC50 (uM) [SG]), the CC50 amounted to 14.6 µM. Moreover, in data set [1] (setting [2]), the IC50 turned out to be 3.79 µM. Also, in data set [1] (setting [3]), the Emax worked out at 91.7%.
